Assay results as given in patent US5086066A, “Method of providing anxiolytic and antipsychotic treatment with substituted benzamides” (priority 1988, dated 1992).

Experiments:
mice = assay: two compartment (dark and light) box test, anxiolytic activity; format: in vivo; details: for % time in black compartment / Black compartment rearings/5 min / Black compartment transits/5 min / Delay white → black / White compartment rearings/5 min / White compartment transits/5 min: 40 min after administration, S.E.M. <12.6%, n = 5; for minimal effective dose: Mus musculus, sc, 40 min, subcutaneous, mice, read-out: dose at and above which anxiolytic activity is manifested
Experimental: The two compartment box test was conducted in mice to evaluate anxiolytic activity. This test is based on a natural aversion of mice to light. The apparatus used is a box containing two compartments, one of which is dark (labeled "black compartment" in the Table 1) and the other illuminated (labeled "white compartment" in Table 1). The apparatus is designed to allow the animal to choose between staying in either of the two compartments. Under normal conditions, the mice avoid light and usually remain in the dark compartment. Under the influence of an anxiolytic agent, however, exploration of the illustrated compartment predominates. The test consists of placing each mouse in the center of the illuminated compartment and observing the animal's behavior by video system for 5 minutes. The number of exploratory rearings and the number of displacements (the crossing of lines traced on the floor of each compartment constitute "passages") are then recorded for each compartment. An anxiolytic effect induced by a drug, such as diazepam, is characterized by an increase in the number of exploratory rearings and in the number of passages into the illuminated compartment. The compounds of the invention were injected subcutaneously at variable doses, each dose being administered to a group of 5 mice.

[1] = acute toxicity, median lethal dose (LD50) intravenously; details: mouse, in vivo, iv
Excerpt: The compounds of the invention were also subjected to a study of acute toxicity when injected intravenously in male mice and female mice, which enabled the median lethal doses (LD50) to be determined.

rats = assay: hyperactivity induced by injection of amphetamine into the nucleus accumbens (motor activity), antipsychotic activity; format: in vivo
Experimental: Tests were conducted to measure the antipsychotic activity of the compounds of the invention. In particular, the hyperactivity induced in rats by the perfusion of amphetamine into the nucleus accumbens was evaluated. This test consists in determining the effect of the compounds of the invention on hyperactivity produced in rats by the injection of amphetamine into the nucleus accumbens. Hyperactivity was induced by injecting 20 μg of amphetamine bilaterally into the nucleus accumbens. The compounds of the invention were administered subcutaneously at doses of 1 mg/kg and 10 mg/kg, 40 minutes before the injection of amphetamine. For each dose of test product, a group of 5 animals was used. A group treated only with amphetamine and a reference group which received only an inert vehicle comprised 10 animals.
Immediately after the injection of amphetamine, the rats were placed in individual cages equipped with photoelectric cells. Motor activity, characterized by the number of shifts from place to place in these cages, was determined by the number of interruptions of a light beam striking these cells. The measurements were made during the 80 minutes following the injection of amphetamine. The results, expressed as the number of shifts from place to place per 10-minute period, are collated in Table 2.

In the case of `CCN(CC)CCNC(=O)c1cc(Cl)c(NC2=NCCO2)cc1OC` [Compound 7, N-[2-(diethylamino)ethyl]-2-methoxy-4-[(4,5-dihydro-2-oxazolyl)amino]-5-chlorobenzamide], the “% time in black compartment” value (mice; 0.1 mg/kg s.c.) is reported as 27%, the “Black compartment rearings/5 min” value (mice; 0.1 mg/kg s.c.) is reported as 16 rearings/5 min and the “Black compartment transits/5 min” value (mice; 0.1 mg/kg s.c.) is reported as 16 transits/5 min. The “Delay white → black” value (mice; 0.1 mg/kg s.c.) was 24 s, the “White compartment rearings/5 min” value (mice; 0.1 mg/kg s.c.) was 69 rearings/5 min and the “White compartment transits/5 min” value (mice; 0.1 mg/kg s.c.) was 68 transits/5 min.
With `CCN(CC)CCNC(=O)c1cc(Br)c(NC2=NCCN2)cc1OC` [Compound 6, N-[2-(diethylamino)ethyl]-2-methoxy-4-[(4,5-dihydro-1H-imidazol-2-yl)amino]-5-bromobenzamide] the “% time in black compartment” value (mice; 0.1 mg/kg s.c.) was 27%, the “Black compartment rearings/5 min” value (mice; 0.1 mg/kg s.c.) was 39 rearings/5 min and the “Black compartment transits/5 min” value (mice; 0.1 mg/kg s.c.) was 50 transits/5 min. The “Delay white → black” value (mice; 0.1 mg/kg s.c.) was 13 s, the “White compartment rearings/5 min” value (mice; 0.1 mg/kg s.c.) was 40 rearings/5 min and the “White compartment transits/5 min” value (mice; 0.1 mg/kg s.c.) was 48 transits/5 min. It also gave an LD50 ([1]; female mice) of 118 mg/kg and an LD50 ([1]; male mice) of 103 mg/kg.
In the case of `CCN1CCCC1CNC(=O)c1cc(Cl)c(NC2=NC(C)CN2)cc1OC` (centres unmarked) [Compound 5, N-(1-ethyl-2-pyrrolidinylmethyl)-2-methoxy-4-[(4,5-dihydro-4-methyl-1H-imidazol-2-yl)amino]-5-chlorobenzamide], the “% time in black compartment” value (mice; 1 mg/kg s.c.) is reported as 32%, the “Black compartment rearings/5 min” value (mice; 1 mg/kg s.c.) is reported as 14 rearings/5 min and the “Black compartment transits/5 min” value (mice; 1 mg/kg s.c.) is reported as 19 transits/5 min. The “Delay white → black” value (mice; 1 mg/kg s.c.) was 23 s, the “White compartment rearings/5 min” value (mice; 1 mg/kg s.c.) was 65 rearings/5 min and the “White compartment transits/5 min” value (mice; 1 mg/kg s.c.) was 89 transits/5 min. For the same compound, the “% time in black compartment” value (mice; 10 mg/kg s.c.) was 32%, the “Black compartment rearings/5 min” value (mice; 10 mg/kg s.c.) was 15 rearings/5 min and the “Black compartment transits/5 min” value (mice; 10 mg/kg s.c.) was 16 transits/5 min. The “Delay white → black” value (mice; 10 mg/kg s.c.) was 22 s, the “White compartment rearings/5 min” value (mice; 10 mg/kg s.c.) was 68 rearings/5 min and the “White compartment transits/5 min” value (mice; 10 mg/kg s.c.) was 80 transits/5 min.
In the case of `CCN1CCCC1CNC(=O)c1cc(Br)c(NC2=NC(C)CN2)cc1OC` (centres unmarked) [Compound 4, N-(1-ethyl-2-pyrrolidinylmethyl)-2-methoxy-4-[(4,5-dihydro-4-methyl-1H-imidazol-2-yl)amino]-5-bromobenzamide], the “% time in black compartment” value (mice; 0.0001 mg/kg s.c.) is reported as 27%, the “Black compartment rearings/5 min” value (mice; 0.0001 mg/kg s.c.) is reported as 19 rearings/5 min and the “Black compartment transits/5 min” value (mice; 0.0001 mg/kg s.c.) is reported as 21 transits/5 min. For the same compound, the “Delay white → black” value (mice; 0.0001 mg/kg s.c.) was 23 s, the “White compartment rearings/5 min” value (mice; 0.0001 mg/kg s.c.) was 73 rearings/5 min and the “White compartment transits/5 min” value (mice; 0.0001 mg/kg s.c.) was 82 transits/5 min. For the same compound, the “% time in black compartment” value (mice; 0.01 mg/kg s.c.) was 31%, the “Black compartment rearings/5 min” value (mice; 0.01 mg/kg s.c.) was 15 rearings/5 min and the “Black compartment transits/5 min” value (mice; 0.01 mg/kg s.c.) was 20 transits/5 min. For the same compound, the “Delay white → black” value (mice; 0.01 mg/kg s.c.) was 22 s, the “White compartment rearings/5 min” value (mice; 0.01 mg/kg s.c.) was 82 rearings/5 min and the “White compartment transits/5 min” value (mice; 0.01 mg/kg s.c.) was 83 transits/5 min. The “% time in black compartment” value (mice; 0.1 mg/kg s.c.) was 34%, the “Black compartment rearings/5 min” value (mice; 0.1 mg/kg s.c.) was 16 rearings/5 min and the “Black compartment transits/5 min” value (mice; 0.1 mg/kg s.c.) was 24 transits/5 min. The “Delay white → black” value (mice; 0.1 mg/kg s.c.) was 38 s, the “White compartment rearings/5 min” value (mice; 0.1 mg/kg s.c.) was 78 rearings/5 min and the “White compartment transits/5 min” value (mice; 0.1 mg/kg s.c.) was 99 transits/5 min. The minimal effective dose (mice) was no less than 0.0001 mg/kg, the Motor activity (rats; 1 mg/kg s.c. 40 min before amphetamine 20 μg, time 10 min) was 34 ± 8 shifts from place to place/10 minutes and the Motor activity (rats; 1 mg/kg s.c. 40 min before amphetamine 20 μg, time 20 min) was 60 ± 13 shifts from place to place/10 minutes. For the same compound, the Motor activity (rats; 1 mg/kg s.c. 40 min before amphetamine 20 μg, time 30 min) was 40 ± 10 shifts from place to place/10 minutes, the Motor activity (rats; 1 mg/kg s.c. 40 min before amphetamine 20 μg, time 40 min) was 38 ± 13 shifts from place to place/10 minutes and the Motor activity (rats; 1 mg/kg s.c. 40 min before amphetamine 20 μg, time 50 min) was 37 ± 10 shifts from place to place/10 minutes. The Motor activity (rats; 1 mg/kg s.c. 40 min before amphetamine 20 μg, time 60 min) was 16 ± 2 shifts from place to place/10 minutes, the Motor activity (rats; 1 mg/kg s.c. 40 min before amphetamine 20 μg, time 70 min) was 8 ± 3 shifts from place to place/10 minutes and the Motor activity (rats; 1 mg/kg s.c. 40 min before amphetamine 20 μg, time 80 min) was 4 ± 2 shifts from place to place/10 minutes. For the same compound, the Motor activity (rats; 10 mg/kg s.c. 40 min before amphetamine 20 μg, time 10 min) was 38 ± 7 shifts from place to place/10 minutes, the Motor activity (rats; 10 mg/kg s.c. 40 min before amphetamine 20 μg, time 20 min) was 8 ± 1.4 shifts from place to place/10 minutes and the Motor activity (rats; 10 mg/kg s.c. 40 min before amphetamine 20 μg, time 30 min) was 9 ± 3 shifts from place to place/10 minutes. For the same compound, the Motor activity (rats; 10 mg/kg s.c. 40 min before amphetamine 20 μg, time 40 min) was 11 ± 1.6 shifts from place to place/10 minutes, the Motor activity (rats; 10 mg/kg s.c. 40 min before amphetamine 20 μg, time 50 min) was 5 ± 1 shifts from place to place/10 minutes and the Motor activity (rats; 10 mg/kg s.c. 40 min before amphetamine 20 μg, time 60 min) was 2 ± 1 shifts from place to place/10 minutes. It also gave an LD50 ([1]; female mice) of 18 mg/kg and an LD50 ([1]; male mice) of 15.5 mg/kg.
For `CCN(CC)CCNC(=O)c1cc(Br)c(NC2=NC(C)CN2)cc1OC` (centres unmarked) [Compound 3, N-[2-(diethylamino)ethyl]-2-methoxy-4-[(4,5-dihydro-4-methyl-1H-imidazol-2-yl)amino]-5-bromo-benzamide], the “% time in black compartment” value (mice; 0.1 mg/kg s.c.) was 30%, the “Black compartment rearings/5 min” value (mice; 0.1 mg/kg s.c.) was 18 rearings/5 min and the “Black compartment transits/5 min” value (mice; 0.1 mg/kg s.c.) was 18 transits/5 min. For the same compound, the “Delay white → black” value (mice; 0.1 mg/kg s.c.) was 23 s, the “White compartment rearings/5 min” value (mice; 0.1 mg/kg s.c.) was 97 rearings/5 min and the “White compartment transits/5 min” value (mice; 0.1 mg/kg s.c.) was 104 transits/5 min. For the same compound, the LD50 ([1]; female mice) was 24 mg/kg and the LD50 ([1]; male mice) was 22 mg/kg.
In the case of `C=CCN1CCCC1CNC(=O)c1cc(Cl)c(NC2=NC(C)CN2)cc1OC` (centres unmarked) [Compound 2, N-(1-allyl-2-pyrrolidinylmethyl)-2-methoxy-4-[(4,5-dihydro-4-methyl-1H-imidazol-2-yl)amino]-5-chlorobenzamide], the “% time in black compartment” value (mice; 0.01 mg/kg s.c.) is reported as 49%, the “Black compartment rearings/5 min” value (mice; 0.01 mg/kg s.c.) is reported as 27 rearings/5 min and the “Black compartment transits/5 min” value (mice; 0.01 mg/kg s.c.) is reported as 30 transits/5 min. For the same compound, the “Delay white → black” value (mice; 0.01 mg/kg s.c.) was 18 s, the “White compartment rearings/5 min” value (mice; 0.01 mg/kg s.c.) was 43 rearings/5 min and the “White compartment transits/5 min” value (mice; 0.01 mg/kg s.c.) was 51 transits/5 min. For the same compound, the “% time in black compartment” value (mice; 0.1 mg/kg s.c.) was 29%, the “Black compartment rearings/5 min” value (mice; 0.1 mg/kg s.c.) was 20 rearings/5 min and the “Black compartment transits/5 min” value (mice; 0.1 mg/kg s.c.) was 25 transits/5 min. For the same compound, the “Delay white → black” value (mice; 0.1 mg/kg s.c.) was 20 s, the “White compartment rearings/5 min” value (mice; 0.1 mg/kg s.c.) was 83 rearings/5 min and the “White compartment transits/5 min” value (mice; 0.1 mg/kg s.c.) was 80 transits/5 min. It also gave a minimal effective dose (mice) of no less than 0.01 mg/kg, an LD50 ([1]; female mice) of 42 mg/kg and an LD50 ([1]; male mice) of 42 mg/kg.
For `CC(N)Cc1ccccc1` (centres unmarked) [Amphetamine, amphetamine, reference compound], the Motor activity (rats; amphetamine alone 20 μg bilaterally into nucleus accumbens, time 10 min) was 31 ± 4 shifts from place to place/10, the Motor activity (rats; amphetamine alone 20 μg bilaterally into nucleus accumbens, time 20 min) was 48 ± 5 shifts from place to place/10 and the Motor activity (rats; amphetamine alone 20 μg bilaterally into nucleus accumbens, time 30 min) was 66 ± 7 shifts from place to place/10. The Motor activity (rats; amphetamine alone 20 μg bilaterally into nucleus accumbens, time 40 min) was 59 ± 7 shifts from place to place/10, the Motor activity (rats; amphetamine alone 20 μg bilaterally into nucleus accumbens, time 50 min) was 36 ± 5 shifts from place to place/10 and the Motor activity (rats; amphetamine alone 20 μg bilaterally into nucleus accumbens, time 60 min) was 29 ± 4 shifts from place to place/10. The Motor activity (rats; amphetamine alone 20 μg bilaterally into nucleus accumbens, time 70 min) was 19 ± 3 shifts from place to place/10 and the Motor activity (rats; amphetamine alone 20 μg bilaterally into nucleus accumbens, time 80 min) was 8 ± 3 shifts from place to place/10.
